Series [1] deals with SD rats. As to the kind of experiment: Evaluation on rat gastrointestinal disorder (7-day oral administration, hematology, blood chemistry, histopathology). Format: in vivo. Particulars: 3 mg/kg po for 7 days. The procedure: Test Example 10: Evaluation on Rat Gastrointestinal Disorder
SD rats (male, 7-week old) were used. A test compound dissolved in a mixed solution of PEG 400: 20% Tween 80: 1 mol/L aqueous NaHCO3 solution=1:4:5 was orally administered at a dose of 3 mg/kg (n=5, 5 mL/kg) for 7 days. The aforementioned mixed liquid was orally administered to a group not treated with the test drug (n=5) at a volume of 5 mL/kg for 7 days. Blood was collected under fasting overnight for hematology and blood chemistry tests on the following day after the final administration. After blood collection, the animal which had been euthanized by exsanguination was immediately necropsied, and the stomach, duodenum, jejunum, ileum, cecum, colon, rectum, and liver were excised therefrom. The excised organs were fixed in a 10% neutral buffered formalin solution and used for histopathological evaluation.

For series [2], the target named is rat EP4 receptor (Rattus norvegicus, UniProt P43114). Put plainly: Rat EP4 receptor antagonistic action by measurement of cAMP amount in CHO-K1 cells. The arrangement: expressed in transfected cells. Particulars: PGE2 100 nmol/L, CHO-K1 cells stably expressing rat EP4, average of two experiments; read-out: IC50 value with respect to the cAMP production action by PGE2 in rat EP4 receptor expressing CHO-K1 cells. Format: cell-based. The procedure: Test Example 4: Evaluation Test of Rat EP4 Receptor Antagonistic Action by Measurement of cAMP Amount
Construction of Vector Expressing Rat EP4 Receptor:
The construction was carried out in the same manner as in Test Example 1.
Construction of Cells Stably Expressing Rat EP4 Receptor:
The expression vector of a rat EP4 receptor was transfected into a CHO—K1 cell (ATCC No.: CCL-61). The transfection was carried out according to an appended instruction, using Lipofectoamine (registered trademark) 2000 reagent (Invitrogen Inc.). After the transfection, the cells were cultured in an α-MEM culture medium (product No. 12571063, Invitrogen Inc.) containing G418 (Nakalai Tesque Inc.) to acquire a drug-resistant clone.
Cell Culture and Treatment with Compound:
CHO—K1 cells stably expressing a rat EP4 were seeded in 96-well plates at 0.5×10^4 cells/100 μL and cultured overnight. […]
The cAMP amount in the cell lysate was measured using a cAMP HiRange kit. […] After incubation, the fluorescence intensity of the cryptate at 620 nm and the fluorescence intensity of the d2 at 665 nm were measured using ARVO1420. The cAMPs of 280, 70, 17.5, 4.38, 1.09, 0.27, and 0.068 nmol/L were added to each well to create a standard curve and the fluorescence intensity was measured as described above. […] An average value was calculated from two experiment results.

Chain of rat EP4 receptor (P43114 whole entry): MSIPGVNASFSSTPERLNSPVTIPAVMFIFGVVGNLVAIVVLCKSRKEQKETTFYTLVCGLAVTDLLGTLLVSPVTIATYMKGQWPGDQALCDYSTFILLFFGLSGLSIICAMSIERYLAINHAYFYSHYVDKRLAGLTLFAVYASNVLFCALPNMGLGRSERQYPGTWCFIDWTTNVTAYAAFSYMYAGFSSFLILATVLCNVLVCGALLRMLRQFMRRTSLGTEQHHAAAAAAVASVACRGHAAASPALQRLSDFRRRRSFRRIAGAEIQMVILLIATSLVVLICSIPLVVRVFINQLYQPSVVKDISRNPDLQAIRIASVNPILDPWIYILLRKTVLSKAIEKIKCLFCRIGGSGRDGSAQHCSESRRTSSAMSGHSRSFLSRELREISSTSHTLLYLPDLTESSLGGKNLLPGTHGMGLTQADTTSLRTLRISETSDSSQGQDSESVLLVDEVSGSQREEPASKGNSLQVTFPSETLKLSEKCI

Turning to `Cc1nn(Cc2cc3ccccc3cn2)c(C(=O)N[C@@H](C)c2ccc(C(=O)O)cc2)c1Br` [Compound A, 4-[(1S)-1-({[4-bromo-1-(isoquinolin-3-ylmethyl)-3-methyl-1H-pyrazol-5-yl]carbonyl}amino)ethyl]benzoic acid], in series [1], the “Findings indicating abnormality (hematology, blood chemistry, histopathology of gastrointestinal organs and liver)” value is listed as “not observed”. In addition, the IC50 in series [2] came to 1.04 nM.

The values are drawn from US10106523B2, “Amide compound” (ASTELLAS PHARMA INC., priority 2014, dated 2018).
